What all share (type): biochemical
One assay concerns the target Cathepsin S (Homo sapiens, UniProt P25774). As to the kind of experiment: Cathepsin S enzymatic assay (assay 1). Particulars: human recombinant enzyme, KQKLR-AMC substrate, pH 6.5. The procedure:
Assay 1) Determination of Falcipain-2, Falcipain-3, Vivapain-2, Cathepsin K Cathepsin S, Cathepsin L, and Cathepsin B Proteolytic Catalytic Activity
Assays for Falcipain-2, Falcipain-3, and Vivapain-2 are carried out with parasitic recombinant enzymes. Cathepsins K, S, L, and B are carried out with human recombinant enzymes. Standard assay conditions for the determination of kinetic constants used a fluorogenic peptide substrate, typically H-D-VLR-AFC (Falcipain-2, Falcipain-3, Vivapain-2), Z-FR-AFC (Cathepsin K, L, B), or KQKLR-AMC (Cathepsin S) and are determined in 100 mM sodium acetate, pH 5.5, containing 10 mM DTT and 0.5 mM CHAPS (Falcipain-2, Falcipain-3, Vivapain-2), and 100 mM sodium acetate, pH 5.5, containing 5 mM L-cysteine, 1 mM CHAPS and 5 mM EDTA (Cathepsin K, L, B), or 50 mM MES, pH 6.5, containing 0.5 mM CHAPS, 10 mM L-CYS, 5 mM EDTA (Cathepsin S). Stock substrate solutions are prepared at 20 mM in DMSO. The activity assays contained 30 uM substrate (Falcipain-2, Falcipain-3, Vivapain-2), 20 uM substrate (Cathepsin K), 25 uM substrate (Cathepsin B), 5 uM substrate (Cathepsin L), and 30 uM substrate (Cathepsin S). All assays contained 1% DMSO. […] All assays are conducted at ambient temperature as end point assays being quenched after 60 minutes with the exception of Cathepsin S at 90 minutes, with 16.6 uM E-64 in 1% DMSO. Product formation (AFC or AMC) is determined from fluorescence (excitation at 405 nm; emission at 530 nm, AFC, or excitation at 360 nm; emission at 460 nm, AMC) monitored with a LJL Aquest (Molecular Devices) fluorescent plate reader. In the case of kinetic reads (used in mechanism of action studies), the reaction is not quenched but is read in the plate reader every 3 minutes for approximately 90 minutes. In addition, the mechanism of action studies for Falcipain-2 utilize Z-LR-AMC as the substrate. Product formation is determined from the fluorescence of AMC, measured with a LJL Acquest (Molecular Devices) fluorescent plate reader (excitation at 360 nm; emission at 460 nm).
Potential inhibitors are evaluated using the quenched read (endpoint) method. Assays are carried out in the presence of variable concentrations of test compound. Reactions are initiated by addition of enzyme and substrate to wells containing inhibitor stamped in 100% DMSO. For endpoint assays, the reaction is quenched with the addition of E64. Dose response data is fit to an IC50 curve with preset fitting tools according to equation 1:
y=a+(b−a)/(1+(10^x/10^c)^d) (1)
where y is the response at a particular inhibitor concentration x, a is the minimum response value, b is the maximum response value, c is the IC50, and d is the slope of the IC50 curve. Assuming the compound is a competitive inhibitor, the apparent KI can be calculated from IC50, as shown in equation 2: […]

The next assay concerns the target T1, Cathepsin K (Homo sapiens, UniProt P43235).
T1 sequence (P43235 115-329): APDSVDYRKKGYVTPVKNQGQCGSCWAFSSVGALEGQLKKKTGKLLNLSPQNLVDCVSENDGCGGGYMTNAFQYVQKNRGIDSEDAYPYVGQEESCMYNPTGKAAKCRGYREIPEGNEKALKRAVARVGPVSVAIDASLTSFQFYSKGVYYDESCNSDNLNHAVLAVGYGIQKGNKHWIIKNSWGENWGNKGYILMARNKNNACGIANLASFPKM
As to the kind of experiment: Cathepsin K enzymatic assay (assay 1). Particulars: human recombinant enzyme, Z-FR-AFC substrate, pH 5.5. Summed up: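 Human recombinant cathepsin K was assayed with the fluorogenic substrate Z-FR-AFC at 20 uM in 100 mM sodium acetate, pH 5.5, with 5 mM L-cysteine, 1 mM CHAPS, 5 mM EDTA and 1% DMSO. Enzyme plus substrate was added to wells holding inhibitor in DMSO. After 60 minutes at ambient temperature, 16.6 uM E-64 quenched the reaction. AFC fluorescence (excitation 405 nm, emission 530 nm) was read, and IC50 came from a four-parameter dose-response fit.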

A further assay deals with Falcipain-3 (Plasmodium falciparum, UniProt Q8IIL0). As to the kind of experiment: Falcipain-3 enzymatic assay (assay 1). In outline: (§1)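 Recombinant parasite enzyme with 30 uM H-D-VLR-AFC in 100 mM sodium acetate pH 5.5, 10 mM DTT, 0.5 mM CHAPS, 1% DMSO, ambient temperature. Endpoint after 60 minutes, quenched with 16.6 uM E-64; AFC fluorescence (ex 405/em 530). IC50 from four-parameter fit, apparent KI assuming competitive inhibition.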
Chain of Falcipain-3 (Q8IIL0 243-492): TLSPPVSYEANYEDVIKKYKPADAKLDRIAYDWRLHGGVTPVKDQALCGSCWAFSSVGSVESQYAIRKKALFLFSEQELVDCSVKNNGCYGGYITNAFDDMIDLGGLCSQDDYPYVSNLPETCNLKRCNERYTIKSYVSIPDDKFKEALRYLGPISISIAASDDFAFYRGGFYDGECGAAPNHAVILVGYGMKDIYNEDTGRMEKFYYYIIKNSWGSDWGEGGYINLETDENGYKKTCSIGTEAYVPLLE

The target in another assay is Falcipain-2 (Plasmodium falciparum, UniProt Q8I6U4). As to the kind of experiment: Falcipain-2 enzymatic assay (assay 1). In outline: as §1
Chain of Falcipain-2 (Q8I6U4 244-484): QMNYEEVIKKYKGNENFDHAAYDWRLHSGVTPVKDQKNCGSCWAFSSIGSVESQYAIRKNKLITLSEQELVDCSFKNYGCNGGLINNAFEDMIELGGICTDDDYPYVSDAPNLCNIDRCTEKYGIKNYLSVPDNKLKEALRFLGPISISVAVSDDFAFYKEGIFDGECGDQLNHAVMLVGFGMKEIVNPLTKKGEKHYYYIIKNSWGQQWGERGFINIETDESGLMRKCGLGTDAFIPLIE

Our source for the IC50 values is patent US20100009956A1, “NOVEL SUBSTITUTED PYRIMIDINES AS CYSTEINE PROTEASE INHIBITORS” (Glaxo Group Limited , a corporation, priority 2006, published 2010).

Structures can show the parent of a compound that is named as a salt. Where two headings read alike, the source gives them in different places.

Chain of Cathepsin S (P25774 115-331): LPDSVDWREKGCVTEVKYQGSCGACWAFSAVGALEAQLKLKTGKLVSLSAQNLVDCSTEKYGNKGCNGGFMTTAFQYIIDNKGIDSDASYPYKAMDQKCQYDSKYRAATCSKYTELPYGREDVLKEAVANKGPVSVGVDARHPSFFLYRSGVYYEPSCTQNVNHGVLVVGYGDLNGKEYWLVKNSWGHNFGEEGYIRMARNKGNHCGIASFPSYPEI

On to `CN1CCN(Cc2ccc(C(=O)NN(c3nc(C#N)ncc3Cl)C3CCCCC3)cc2)CC1` [Example 51, N′-(5-chloro-2-cyano-4-pyrimidinyl)-N′-cyclohexyl-4-[(4-methyl-1-piperazinyl)methyl]benzohydrazide trifluoroacetate], for which the half-inhibitory concentration (IC50) (as a rule, the concentration needed to halve the response being measured) at Cathepsin S was under 200 nM; on Cathepsin K, under 1.5 nM; on Falcipain-3 it was 15 to 150 nM; on Falcipain-2, 1 to 2.5 nM.

With `CN1CCN(Cc2ccc(-c3ccc(C(=O)NN(c4nc(C#N)ncc4Br)C4CCCC4)cn3)cc2)CC1` [Example 46, N′-(5-bromo-2-cyano-4-pyrimidinyl)-N′-cyclopentyl-6-{4-[(4-methyl-1-piperazinyl)methyl]phenyl}-3-pyridinecarbohydrazide trifluoroacetate], the IC50 was under 200 nM at Cathepsin S, under 1.5 nM on Cathepsin K, 15 to 150 nM on Falcipain-3 and under 1 nM at Falcipain-2.

As for `CC1CCC(N(NC(=O)c2ccc(CN3CCN(CC4CCN(C)CC4)CC3)cc2)c2nc(C#N)ncc2Br)C1` (mixture of isomers) [Example 5, N′(5-bromo-2-cyano-4-pyrimidinyl)-N′-(3-methylcyclopentyl)-4-({4-[(1-methyl4-piperidinyl)methyl]-1-piperazinyl}methyl)benzohydrazide trifluoroacetate], the IC50 was under 1000 nM on Cathepsin S, under 1.5 nM on Cathepsin K, 15 to 150 nM against Falcipain-3 and under 1 nM against Falcipain-2.

On to `CC1CCC(N(NC(=O)c2ccc(CN3CCC(N4CCN(C)CC4)CC3)cc2)c2nc(C#N)ncc2Br)C1` (mixture of isomers) [Example 4, N′-(5-bromo-2-cyano-4-pyrimidinyl)-N′-(3-methylcyclopentyl)-4-{[4-(4-methyl-1-piperazinyl)-1-piperidinyl]methyl}benzohydrazide trifluoroacetate], for which the IC50 at Cathepsin S is under 1000 nM; at Cathepsin K, under 1.5 nM; on Falcipain-3 it was 1 to 2.5 nM; against Falcipain-2 it was under 1 nM.

For the compound `CN1CCN(Cc2ccc(C(=O)NN(c3nc(C#N)ncc3Cl)C3CCCC3)cc2)CC1` [Example 50, N′-(5-chloro-2-cyano-4-pyrimidinyl)-N′-cyclopentyl-4-[(4-methyl-1-piperazinyl)methyl]benzohydrazide trifluoroacetate], the IC50 at Cathepsin S is under 200 nM; at Cathepsin K it was under 1.5 nM; against Falcipain-3 it was 15 to 150 nM; on Falcipain-2 (parasitic recombinant enzyme, H-D-VLR-AFC substrate, pH 5.5, endpoint read, read-out: Falcipain-2 IC50), under 1 nM.

As for `CN1CCCC(CN2CCN(Cc3cccc(C(=O)NN(c4nc(C#N)ncc4Br)C4CCCCC4)c3)CC2)C1` (stereo not drawn) [Example 27, N′-(5-bromo-2-cyano-4-pyrimidinyl)-N′-cyclohexyl-3-({4-[(1-methyl-3-piperidinyl)methyl]-1-piperazinyl}methyl)benzohydrazide trifluoroacetate], the IC50 at Cathepsin S is under 1000 nM; at Cathepsin K, under 1.5 nM; on Falcipain-3, 2.5 to 15 nM; against Falcipain-2 it was under 1 nM.

On to `CN(CCC(O)c1ccccc1)Cc1ccc(C(=O)NN(c2nc(C#N)ncc2Cl)C2CCCC2)cc1` (stereo not drawn) [Example 59, N′-(5-chloro-2-cyano-4-pyrimidinyl)-N′-cyclopentyl-4-{[(3-hydroxy-3-phenylpropyl)(methyl)amino]methyl}benzohydrazide trifluoroacetate], for which the figures for the IC50 at Cathepsin S, at Falcipain-3 and on Falcipain-2 were under 200 nM, 1 to 2.5 nM and under 1 nM, respectively.

Consider `CCN(CCCNC(=O)OC(C)(C)C)Cc1ccc(C(=O)NN(c2nc(C#N)ncc2Cl)C2CCCC2)cc1` [Example 81, 1,1-dimethylethyl{3-[[(4-{[2-(5-chloro-2-cyano-4-pyrimidinyl)-2-cyclopentylhydrazino]carbonyl}phenyl)methyl](ethyl)amino]propyl}carbamate], for which the IC50 was under 200 nM on Cathepsin S; 2.5 to 15 nM at Falcipain-3 (parasitic recombinant enzyme, H-D-VLR-AFC substrate, pH 5.5, endpoint read, read-out: Falcipain-3 IC50); under 1 nM against Falcipain-2.

For the compound `CN1CCN(Cc2cccc(-c3cncc(C(=O)NN(c4nc(C#N)ncc4Br)C4CCCCC4)c3)c2)CC1` [Example 47, N′-(5-bromo-2-cyano-4-pyrimidinyl)-N′-cyclohexyl-5-{3-[(4-methyl-1-piperazinyl)methyl]phenyl}-3-pyridinecarbohydrazide trifluoroacetate], the half-inhibitory concentration (IC50) is under 200 nM on Cathepsin S, under 1.5 nM on Cathepsin K, 2.5 to 15 nM against Falcipain-3 and under 1 nM on Falcipain-2.

In the case of `N#Cc1ncc(Cl)c(N(NC(=O)c2ccc(CN3CCC(O)CC3)cc2)C2CCCC2)n1` [Example 70, N′-(5-chloro-2-cyano-4-pyrimidinyl)-N′-cyclopentyl-4-[(4-hydroxy-1-piperidinyl)methyl]benzohydrazide trifluoroacetate], the IC50 on Cathepsin S was under 200 nM; on Falcipain-3 it was 2.5 to 15 nM; at Falcipain-2 it was under 1 nM.

As for `CN(CCc1ccccc1)Cc1ccc(C(=O)NN(c2nc(C#N)ncc2Cl)C2CCCC2)cc1` [Example 62, N′-(5-chloro-2-cyano-4-pyrimidinyl)-N′-cyclopentyl-4-{[methyl(2-phenylethyl)amino]methyl}benzohydrazide trifluoroacetate], the 50% inhibitory concentration (IC50) was under 200 nM on Cathepsin S, 2.5 to 15 nM at Falcipain-3 and under 1 nM at Falcipain-2.

With `CN1CCN(C2CCN(Cc3ccc(C(=O)NN(c4nc(C#N)ncc4Cl)C4CCCCC4)cc3)CC2)CC1` [Example 41, N′-(5-chloro-2-cyano-4-pyrimidinyl)-N′-cyclohexyl-4-{([4-(4-methyl-1-piperazinyl)-1-piperidinyl]methyl}benzohydrazidedihydrochloride], the results for the IC50 on Cathepsin S and at Cathepsin K were under 200 nM and under 1.5 nM, respectively.

In the case of `CN1CCN(Cc2ccc(C(=O)NN(c3nc(C#N)ncc3Br)C3CCCC3)cc2)CC1` [Example 1, N′-(5-bromo-2-cyano-4-pyrimidinyl)-N′-cyclopentyl-4-[(4-methyl-1-piperazinyl)methyl]benzohydrazide trifluoroacetate], the IC50 is under 200 nM on Cathepsin S, under 1.5 nM at Cathepsin K and under 1 nM at Falcipain-2.

As for `CCCCN(C)Cc1ccc(C(=O)NN(c2nc(C#N)ncc2Cl)C2CCCC2)cc1` [Example 57, 4-{[butyl(methyl)amino]methyl}-N′-(5-chloro-2-cyano-4-pyrimidinyl)-N′-cyclopentylbenzohydrazide trifluoroacetate], the figures for the IC50 at Cathepsin S, against Falcipain-3 and on Falcipain-2 were under 200 nM, 2.5 to 15 nM and under 1 nM, respectively.

`CC(C)N(Cc1ccc(C(=O)NN(c2nc(C#N)ncc2Cl)C2CCCC2)cc1)C(C)C` [Example 72, 4-{[bis(1-methylethyl)amino]methyl}-N′-(5-chloro-2-cyano-4-pyrimidinyl)-N′-cyclopentylbenzohydrazide trifluoroacetate]: the IC50 at Cathepsin S was under 200 nM; on Falcipain-3, 2.5 to 15 nM; against Falcipain-2, under 1 nM.
